Measured values published in patent publication US4048299A, “Anticaries confectionaries and oral health products” (William Wrigley, Jr. Co., priority 1970, dated 1977).

Assays:
[1] = system: Lactobacillus casei ATCC 4646; experiment: Growth inhibition by aldehydes in product vehicles, pour-plate technique; assay type: cell-based; conditions: 1 to 5 percent aldehyde
Procedure: (§1) Other in vitro evaluations utilized a broth tube analysis of representative anticaries aldehydes incorporated in the vehicles of this invention against cultures of acid producing microorganisms normally present in the mouth. Standard laboratory procedures were utilized throughout to evaluate the acid production inhibition and growth inhibition over the incubation time of up to 24 hours.
(§2) (b)Measured by pour-plate technique.
(§3) In formulating Tables XIII - XIX representative aldehydes having anticaries activity were selected from those tested as summarized in Tables I - XII and incorporated in seven representative types of products. The products included dextrose and sucrose syrups, obtained commercially in food grades, and compressed candy, hard candy, mouthwash, toothpaste and toothpowder. The five latter products also employed food grade and reagent grade ingredients. These products were formulated by well-known and representative recipes for each type of product. The products were formed in batches of approximately 1 pound or 1 liter and contained all their normal constitutents. Aliquots of each products were blended with one of each of the representative aldehydes selected except in the case of hard candy.
(§4) Aliquots of the aldehyde incorporating sugar syrups, confectioneries, and mouthwash formulations were added directly to assay flasks and mixed or dissolved as required. Aqueous extracts of the aldehyde incorporated in toothpaste and toothpowder were prepared and aliquots of the filtrate were added to the assay flasks.
(§5) The assay flasks contained the necessary components for a normal growth response from the organisms employed, Lactobacillus casei ATCC 4646, originally a human oral isolate, Streptococcus spp. K1-R, human caries isolate, and a mixed oral microbial population obtained fresh from saliva on the morning prior to the initiation of each assay incubation period. The assay flask medium was dissolved in distilled water in which was added an equal volume of filter sterilized human saliva to yield a 50 percent saliva-medium combination. The medium contained all normal ingredients such as yeast extract, proteose peptone number 3 (a proprietary formula of Difco Laboratories, Detroit, Michigan) monopotassium phosphate, Tween 80 (polyoxethylene sorbitan monoleate) and water, except a carbon source. This was supplied by the aliquot of the sucrose syrup, dextrose syrup, sucrose in the compressed candy tablet and sucrose in the hard candy product. In addition, an aliquot of sucrose solution concentrate was added to the assay flask as a carbon source for evaluation of mouthwash, toothpaste, and toothpowder vehicles.
(§6) The lower aldehydes such as glycolaldehyde, crystalline dimer; pyruvaldehyde, aqueous syrup; d,1-glyceraldehyde solution and crystalline dimer; and glutaraldehyde, employed as a 50 percent aqueous solution, are water soluble and were employed directly either as powders or aqueous solutions. The C8 to C12, longer chain aliphatic aldehydes, of which decyl and dodecyl (lauric) were selected as representative, are oil soluble and are prepared and added to the products as emulsions with four parts of Tween 20, polyoxethylene sorbitan monolaurate. The aldehyde concentrations in the products were randomly chosen between 1 to 5 percent by weight. Limits for the concentrations were selected to coincide with the data presented in Tables I - XII in order to verify that the anticaries activity of the aldehydes in the product vehicles tested was equivalent to the activity previously established for the aldehydes alone.

Streptococcus spp. KI-R [2] = experiment: as above; assay type: cell-based; conditions: 1 to 5 percent aldehyde
Procedure: as §1, §2, §3, §4, §5, §6

[3] = system: Mixed human oral microorganisms; experiment: as above; assay type: cell-based; conditions: 1 to 5 percent aldehyde
Procedure: as §1, §2, §3, §4, §5, §6

[4] = system: Lactobacillus casei ATCC 4646; experiment: Acid production inhibition by aldehydes in product vehicles, broth-tube technique; assay type: cell-based; conditions: 1 to 5 percent aldehyde
Procedure: as §1
(§7) (a)Measured by broth-tube technique.
as §3, §4, §5, §6

Streptococcus spp. KI-R [5] = experiment: as above; assay type: cell-based; conditions: 1 to 5 percent aldehyde
Procedure: as §1, §7, §3, §4, §5, §6

[6] = system: Mixed human oral microorganisms; experiment: as above; assay type: cell-based; conditions: 1 to 5 percent aldehyde
Procedure: as §1, §7, §3, §4, §5, §6

[7] = system: Lactobacillus casei and Streptococcus sp. FA-1; experiment: Acid-production inhibition by broth-tube assay, 0.1 percent of compound; assay type: cell-based; conditions: Table XII; 0.1% of compound
Procedure: ^(a) Activity was measured by broth-tube assay to determine percent
(§8) acid-production inhibition obtained by Lactobacillus casei and
Streptococcus sp. FA-1 in the presence of 0.1 percent of compound.
^(a) Activity was measured by broth-tube assay to determine percent o
as §8
Streptococcus sp. FA-1 in the presence of 0.1% of compound. Symbols

oral microorganisms = experiment: Comparison of activity against oral microorganisms in vitro; conditions: in words, summary of tables
Procedure: Two types of in vitro evaluations of the anticaries agents of this invention were conducted. […] The data was compiled through well-known broth tube analysis techniques.

[8] = in compressed candy tablet, 2 h incubation
[9] = in compressed candy tablet, 5 h incubation
[10] = in compressed candy tablet, 24 h incubation
[11] = in dextrose syrup, 2 h incubation
[12] = in dextrose syrup, 5 h incubation
[13] = in dextrose syrup, 24 h incubation
[14] = in sucrose syrup, 2 h incubation
[15] = in sucrose syrup, 5 h incubation
[16] = in sucrose syrup, 24 h incubation
[17] = in tooth powder (aqueous extract), 2 h incubation
[18] = in tooth powder (aqueous extract), 5 h incubation
[19] = in tooth powder (aqueous extract), 24 h incubation
[20] = in toothpaste (aqueous extract), 2 h incubation
[21] = in toothpaste (aqueous extract), 5 h incubation
[22] = in toothpaste (aqueous extract), 24 h incubation

In the case of `O=CCCCC=O` [Glutaraldehyde], the “Growth Inhibition” value [1, 8] is reported as “N.S”, the “Growth Inhibition” value [1, 9] is reported as “N.S” and the “Growth Inhibition” value [1, 10] is reported as 99.5 Per Cent. The “Growth Inhibition” value [1, 11] was “N.S”, the “Growth Inhibition” value [1, 12] was “N.S” and the “Growth Inhibition” value [1, 13] was 90 Per Cent. The “Growth Inhibition” value [1, 14] was “N.S”, the “Growth Inhibition” value [1, 15] was “N.S” and the “Growth Inhibition” value [1, 16] was “N.S”. The “Growth Inhibition” value [1, 17] was “N.S”, the “Growth Inhibition” value [1, 18] was “N.S” and the “Growth Inhibition” value [1, 19] was “N.S”. For the same compound, the “Growth Inhibition” value [1, 20] was “N.S”, the “Growth Inhibition” value [1, 21] was “N.S” and the “Growth Inhibition” value [1, 22] was 0 Per cent. For the same compound, the “Growth Inhibition” value (Streptococcus spp. KI-R [2]; [8]) was “N.S”, the “Growth Inhibition” value (Streptococcus spp. KI-R [2]; [9]) was “N.S” and the “Growth Inhibition” value (Streptococcus spp. KI-R [2]; [10]) was “N.S”. For the same compound, the “Growth Inhibition” value (Streptococcus spp. KI-R [2]; [11]) was “N.S”, the “Growth Inhibition” value (Streptococcus spp. KI-R [2]; [12]) was 99.96 Per Cent and the “Growth Inhibition” value (Streptococcus spp. KI-R [2]; [13]) was 0 Per Cent. For the same compound, the “Growth Inhibition” value (Streptococcus spp. KI-R [2]; in mouthwash, 2 h incubation) was 100 Per cent, the “Growth Inhibition” value (Streptococcus spp. KI-R [2]; in mouthwash, 5 h incubation) was 99.999 Per cent and the “Growth Inhibition” value (Streptococcus spp. KI-R [2]; in mouthwash, 24 h incubation) was 100 Per cent. The “Growth Inhibition” value (Streptococcus spp. KI-R [2]; [14]) was “N.S”, the “Growth Inhibition” value (Streptococcus spp. KI-R [2]; [15]) was > 99 Per cent and the “Growth Inhibition” value (Streptococcus spp. KI-R [2]; [16]) was 90 Per cent. The “Growth Inhibition” value (Streptococcus spp. KI-R [2]; [17]) was “N.S”, the “Growth Inhibition” value (Streptococcus spp. KI-R [2]; [18]) was “N.S” and the “Growth Inhibition” value (Streptococcus spp. KI-R [2]; [19]) was “N.S”. For the same compound, the “Growth Inhibition” value (Streptococcus spp. KI-R [2]; [20]) was “N.S”, the “Growth Inhibition” value (Streptococcus spp. KI-R [2]; [21]) was “N.S” and the “Growth Inhibition” value (Streptococcus spp. KI-R [2]; [22]) was “N.S”. The “Growth Inhibition” value [3, 8] was 97.3 Per Cent, the “Growth Inhibition” value [3, 9] was 99.8 Per Cent and the “Growth Inhibition” value [3, 10] was “N.S”. For the same compound, the “Growth Inhibition” value [3, 11] was 92.5 Per Cent, the “Growth Inhibition” value [3, 12] was 90 Per Cent and the “Growth Inhibition” value [3, 13] was “N.S”. For the same compound, the “Growth Inhibition” value ([3]; in mouthwash, 2 h incubation) was 100 Per cent, the “Growth Inhibition” value ([3]; in mouthwash, 5 h incubation) was 100 Per cent and the “Growth Inhibition” value ([3]; in mouthwash, 24 h incubation) was 99.9 Per cent. For the same compound, the “Growth Inhibition” value [3, 14] was 90 Per cent, the “Growth Inhibition” value [3, 15] was 93 Per cent and the “Growth Inhibition” value [3, 16] was “N.S”. For the same compound, the “Growth Inhibition” value [3, 17] was “N.S”, the “Growth Inhibition” value [3, 18] was 96.6 Per cent and the “Growth Inhibition” value [3, 19] was “N.S”. The “Growth Inhibition” value [3, 20] was 0 Per cent, the “Growth Inhibition” value [3, 21] was “N.S” and the “Growth Inhibition” value [3, 22] was “N.S”. For the same compound, the Solubility was “water soluble”, the “Acid Production Inhibition” value [4, 8] was 0 Per Cent and the “Acid Production Inhibition” value [4, 9] was 33 Per Cent. The “Acid Production Inhibition” value [4, 10] was 81 Per Cent, the “Acid Production Inhibition” value [4, 11] was 76 Per Cent and the “Acid Production Inhibition” value [4, 12] was 70 Per Cent. For the same compound, the “Acid Production Inhibition” value [4, 13] was 29 Per Cent, the “Acid Production Inhibition” value [4, 14] was 100 Per cent and the “Acid Production Inhibition” value [4, 15] was 75 Per cent. For the same compound, the “Acid Production Inhibition” value [4, 16] was 50 Per cent, the “Acid Production Inhibition” value [4, 17] was 0 Per cent and the “Acid Production Inhibition” value [4, 18] was 33 Per cent. For the same compound, the “Acid Production Inhibition” value [4, 19] was 21 Per cent, the “Acid Production Inhibition” value [4, 20] was 80 Per cent and the “Acid Production Inhibition” value [4, 21] was 80 Per cent. The “Acid Production Inhibition” value [4, 22] was 50 Per cent, the “Acid Production Inhibition” value (Streptococcus spp. KI-R [5]; [8]) was 100 Per Cent and the “Acid Production Inhibition” value (Streptococcus spp. KI-R [5]; [9]) was 100 Per Cent. The “Acid Production Inhibition” value (Streptococcus spp. KI-R [5]; [10]) was 100 Per Cent, the “Acid Production Inhibition” value (Streptococcus spp. KI-R [5]; [11]) was 70 Per Cent and the “Acid Production Inhibition” value (Streptococcus spp. KI-R [5]; [12]) was 93 Per Cent. For the same compound, the “Acid Production Inhibition” value (Streptococcus spp. KI-R [5]; [13]) was 0 Per Cent, the “Acid Production Inhibition” value (Streptococcus spp. KI-R [5]; in mouthwash, 2 h incubation) was 0 Per cent and the “Acid Production Inhibition” value (Streptococcus spp. KI-R [5]; in mouthwash, 5 h incubation) was 0 Per cent. For the same compound, the “Acid Production Inhibition” value (Streptococcus spp. KI-R [5]; in mouthwash, 24 h incubation) was 99 Per cent, the “Acid Production Inhibition” value (Streptococcus spp. KI-R [5]; [14]) was 100 Per cent and the “Acid Production Inhibition” value (Streptococcus spp. KI-R [5]; [15]) was 83 Per cent. For the same compound, the “Acid Production Inhibition” value (Streptococcus spp. KI-R [5]; [16]) was 0 Per cent, the “Acid Production Inhibition” value (Streptococcus spp. KI-R [5]; [17]) was 0 Per cent and the “Acid Production Inhibition” value (Streptococcus spp. KI-R [5]; [18]) was 0 Per cent. For the same compound, the “Acid Production Inhibition” value (Streptococcus spp. KI-R [5]; [19]) was 0 Per cent, the “Acid Production Inhibition” value (Streptococcus spp. KI-R [5]; [20]) was 100 Per cent and the “Acid Production Inhibition” value (Streptococcus spp. KI-R [5]; [21]) was 100 Per cent. The “Acid Production Inhibition” value (Streptococcus spp. KI-R [5]; [22]) was 84 Per cent, the “Acid Production Inhibition” value [6, 8] was 100 Per Cent and the “Acid Production Inhibition” value [6, 9] was 100 Per Cent. For the same compound, the “Acid Production Inhibition” value [6, 10] was 0 Per Cent, the “Acid Production Inhibition” value [6, 11] was 23 Per Cent and the “Acid Production Inhibition” value [6, 12] was 81 Per Cent. For the same compound, the “Acid Production Inhibition” value [6, 13] was 16 Per Cent, the “Acid Production Inhibition” value ([6]; in mouthwash, 2 h incubation) was 0 Per cent and the “Acid Production Inhibition” value ([6]; in mouthwash, 5 h incubation) was 100 Per cent. For the same compound, the “Acid Production Inhibition” value ([6]; in mouthwash, 24 h incubation) was 91 Per cent, the “Acid Production Inhibition” value [6, 14] was 100 Per cent and the “Acid Production Inhibition” value [6, 15] was 59 Per cent. For the same compound, the “Acid Production Inhibition” value [6, 16] was 0 Per cent, the “Acid Production Inhibition” value [6, 17] was 67 Per cent and the “Acid Production Inhibition” value [6, 18] was 95 Per cent. For the same compound, the “Acid Production Inhibition” value [6, 19] was 45 Per cent, the “Acid Production Inhibition” value [6, 20] was 0 Per cent and the “Acid Production Inhibition” value [6, 21] was 0 Per cent. For the same compound, the “Acid Production Inhibition” value [6, 22] was 0 Per cent and the “Activity, Acid-Production Inhibition, %” value [7] was “++++ (99 to 100)”.
In the case of `CC(O)C=O` (stereo not drawn) [α-Hydroxypropionaldehyde], the “Anticaries activity in vitro” value (oral microorganisms) is reported as “excellent anticaries activity”.
